Measurements from US20250115569A1, “SULFONAMIDE COMPOUNDS FOR THE TREATMENT OF NEUROLOGICAL CONDITIONS” (LARIO THERAPEUTICS LIMITED, priority 2021, published 2025).

Each molecule was assayed on Human Cav2.3 channel (assay: Human Cav2.3 channel calcium-influx assay). Conditions: Fluo8 fluorescence, HEK-293 T-Rex/Kir2.1/Cav2.3e cells, without pluronic acid.
Format: cell-based
Protocol: HEK-293 T-Rex cells were transfected with pcDNA3.1-Kir2.1 to generate a stable cell line. After antibiotic selection, the obtained stable pools were analysed using FLIPR^TETRA (membrane potential assay), and a limiting dilution was performed and a HEK-293 T-Rex/Kir2.1 clone was selected. The clone was transfected with pcDNA3.1-Cav2.3e and pBud-Cav-β4-α2δ1 to generate a stable cell line where the Cav2.3e expression is inducible. After antibiotic selection, functional clone pool analysis and two successive limiting dilutions, the final clone underwent a qPCR analysis and a biophysical and pharmacological validation using patch-clamp.
A compound plate, containing 10 test compounds in eight-points dose response with n=4, was prepared. Test compounds dose response curves were prepared in automated fashion in 100% DMSO at CyBio Felix and starting from a stock solution in 100% DMSO; a defined volume was serially moved into destination wells pre-filled with the desired DMSO volume; stock solution concentration volumes were dependent on the final compounds concentrations to be tested and the final DMSO content used in the assay. For the assay test compounds dose response curves ranged from 30 μM and half log dilution with 0.3% final DMSO. In order to obtain the 8-points dose response curve all the concentrations were created by starting from a 10 mM DMSO stock solution and then moving 9.5 μL into a destination well pre-filled with 20.5 μL of 100% DMSO and repeating this step seven times. This initial step was done into 96 MTP plates, 10 compounds/plate. One 384 MTP was then reformatted to contain all the 10 compounds at 8 concentrations, quadruplicate data points. This so obtained 384 MTP compound plate served as source plate in a “mother to child” process with a CyBi®-Well dispenser in which 0.7 μL of compounds were moved into a destination plate pre-filled with 57.6 μL of Tyrode's buffer 0 mM K+, thus obtaining 4× concentrated compounds solution. In columns 1-2 and 23-24 the control wells were added. Both “source” compound plate and “destination” compound plate were barcoded and a relationship between the two plates was thus generated.
The day before the experiment, cells were detached by gentle wash with DPBS, followed by 5 min incubation at 37° C. with Trypsin solution. Detached cells were diluted with OptiMEM+Doxycycline at 0.2 μg/mL, counted and plated in Poly-D-Lysine coated black/clear bottom (15.000 c/well in 20 μl/well) by the use of a MATRIX WellMate dispenser. Plates were placed into a humidified incubator at 37° C. with 5% CO2 until the experimental day. 24 h after seeding 10 μL/well of 1.5× Fluo8 NW dye solution prepared in Tyrode's buffer 0 mM K* were added on top of the seeding medium. Cell plates were incubated for 40-60 min at RT in the dark. We then Injected off-line 10 μL/well of test compounds and controls 4× concentrated in Tyrode's Buffer 0 mM K+ with the CyBi®-Well instrument. Cell plates were incubated 3 minutes at RT. Finally, we injected 20 μL/well of 3× concentrated activator solution (K20-Na130-Ca2 buffer: 20 mM KCl, 130 mM NaCl, 2 mM CaCl2, 10 mM HEPES, 10 mM Glucose, final concentrations, prepared starting from “K0-Na150-Ca2” and “K150-Na0-Ca2” buffers) at FDSS7000EX instrument and read emitted fluorescence for 130 seconds.
Data analysis was performed with Genedata Screener® software and reported compounds activity as % effect in relation to the normalization standards. The Kinetic Response Value (KRV) is calculated as follows:
KRV=Maximal fluorescence recorded from second 5 to second 130 minus baseline fluorescence, computed as average from second 1 to second 2, of the kinetic trace. The KRV was normalized versus Neutral Controls and Inhibitor Controls in order to obtain the Activity[%] for each well. […] Therefore, the compound activity values were scaled (based on the two references) to a common range (two-point normalization). […]

Row | Cav2.3 (pIC50) | SMILES
1 | 6.80 | CCN([C@H](c1ccc(C(F)(F)F)cc1)C(F)(F)F)S(=O)(=O)c1cnc2cccnn12 [Example 212, (R)—N-ethyl-N-(2,2,2-trifluoro-1-(4-(trifluoromethyl)phenyl)ethyl)imidazo[1,2-b]pyridazine-3-sulfonamide]
2 | 5.66 | CCN([C@H](c1ccc(F)cc1)C(F)(F)F)S(=O)(=O)c1ccc(C)s1 [Example 10, (R)—N-ethyl-5-methyl-N-(2,2,2-trifluoro-1-(4-fluorophenyl)ethyl)thiophene-2-sulfonamide]
3 | 7.11 | CCN(C(c1cccc(F)c1)C(F)(F)F)S(=O)(=O)c1cncc(C#N)c1 (stereo not drawn) [Example 110, 5-Cyano-N-ethyl-N-(2,2,2-trifluoro-1-(3-fluorophenyl)ethyl)pyridine-3-sulfonamide]
4 | 7.29 | CCN([C@H](c1ccc(C(F)(F)F)cc1)C(F)(F)F)S(=O)(=O)c1ccn2ncnc2c1 [Example 216, (R)—N-ethyl-N-(2,2,2-trifluoro-1-(4-(trifluoromethyl)phenyl)ethyl)-[1,2,4]triazolo[1,5-a]pyridine-7-sulfonamide]
5 | 5.68 | CCN(C(c1ccc(F)cc1)C(F)(F)F)S(=O)(=O)c1ccc(N2CCOCC2)s1 (stereo not drawn) [Example 89, N-ethyl-5-morpholino-N-(2,2,2-trifluoro-1-(4-fluorophenyl)ethyl)thiophene-2-sulfonamide]
6 | 6.02 | COc1ccc(S(=O)(=O)N(C)[C@H](c2ccc(Cl)cc2)C(F)(F)F)nn1 [Example 207, (R)—N-(1-(4-chlorophenyl)-2,2,2-trifluoroethyl)-6-methoxy-N-methylpyridazine-3-sulfonamide]
7 | 6.76 | CCN(C(c1ccc(F)cc1)C(F)(F)F)S(=O)(=O)c1ccn2ccnc2c1 (stereo not drawn) [Example 135, N-ethyl-N-(2,2,2-trifluoro-1-(4-fluorophenyl)ethyl)imidazo[1,2-a]pyridine-7-sulfonamide]
8 | 6.20 | CCN([C@H](c1cccc(OC)c1)C(F)(F)F)S(=O)(=O)c1cncc(C#N)c1 [Example 72, (R)-5-Cyano-N-ethyl-N-(2,2,2-trifluoro-1-(3-methoxyphenyl)ethyl)pyridine-3-sulfonamide]
9 | 5.37 | COc1ccc(C(N(C)S(=O)(=O)C2CCOCC2)C(F)(F)F)cc1 (stereo not drawn) [Example 125, N-methyl-N-(2,2,2-trifluoro-1-(4-methoxyphenyl)ethyl)tetrahydro-2H-pyran-4-sulfonamide]
10 | 6.22 | CN([C@H](c1ccc(F)cc1)C(F)(F)F)S(=O)(=O)c1ccc(C#N)s1 [Example 6, (R)-5-cyano-N-methyl-N-(2,2,2-trifluoro-1-(4-fluorophenyl)ethyl)thiophene-2-sulfonamide]
11 | 6.07 | CCN(C(c1ccc(F)cc1)C(F)(F)F)S(=O)(=O)c1sc(C#N)cc1C (stereo not drawn) [Example 45, 5-Cyano-N-ethyl-3-methyl-N-(2,2,2-trifluoro-1-(4-fluorophenyl)ethyl)thiophene-2-sulfonamide]
12 | 4.30 | CCN([C@@H](c1ccccc1OC)C(F)(F)F)S(=O)(=O)c1cncc(C#N)c1 [Example 108, (S)-5-cyano-N-ethyl-N-(2,2,2-trifluoro-1-(2-methoxyphenyl)ethyl)pyridine-3-sulfonamide]
13 | 4.72 | CCN([C@@H](c1ccc(F)cc1)C(F)(F)F)S(=O)(=O)c1ccc2c(c1)OCC2 [Example 41, (S)—N-ethyl-N-(2,2,2-trifluoro-1-(4-fluorophenyl)ethyl)-2,3-dihydrobenzofuran-6-sulfonamide]
14 | 5.80 | CCN([C@H](c1ccc(F)cc1)C(F)(F)F)S(=O)(=O)c1cncc(N2CCCC2)c1 [Example 98, (R)—N-ethyl-5-(pyrrolidin-1-yl)-N-(2,2,2-trifluoro-1-(4-fluorophenyl)ethyl)pyridine-3-sulfonamide]
15 | 4.99 | Cc1ncc(S(=O)(=O)N(C)[C@@H](c2ccc(F)cc2)C(F)(F)F)cn1 [Example 79, (S)—N,2-dimethyl-N-(2,2,2-trifluoro-1-(4-fluorophenyl)ethyl)pyrimidine-5-sulfonamide]
